Results from ChEMBL document CHEMBL1811850, “Exploration of acridine scaffold as a potentially interesting scaffold for discovering novel multi-target VEGFR-2 and Src kinase inhibitors” (Bioorg Med Chem, 2011).
The source made the active and inactive calls. The calls are words filed in the database; no cut-off is given here.

Experiments:
K562 [1] = assay: cells; settings: Homo sapiens, K562, 48 h
HepG2 = assay: cells; settings: Homo sapiens, HepG2, 48 h
MCF7 = assay: cells; settings: Homo sapiens, MCF7, 48 h
[2] = molecular target: Vascular endothelial growth factor receptor 2 (Homo sapiens) (UniProt P35968); assay: Inhibition of VEGFR2 at 50 uM after 1 hr
Sequence of Vascular endothelial growth factor receptor 2 (Homo sapiens) (P35968 whole entry): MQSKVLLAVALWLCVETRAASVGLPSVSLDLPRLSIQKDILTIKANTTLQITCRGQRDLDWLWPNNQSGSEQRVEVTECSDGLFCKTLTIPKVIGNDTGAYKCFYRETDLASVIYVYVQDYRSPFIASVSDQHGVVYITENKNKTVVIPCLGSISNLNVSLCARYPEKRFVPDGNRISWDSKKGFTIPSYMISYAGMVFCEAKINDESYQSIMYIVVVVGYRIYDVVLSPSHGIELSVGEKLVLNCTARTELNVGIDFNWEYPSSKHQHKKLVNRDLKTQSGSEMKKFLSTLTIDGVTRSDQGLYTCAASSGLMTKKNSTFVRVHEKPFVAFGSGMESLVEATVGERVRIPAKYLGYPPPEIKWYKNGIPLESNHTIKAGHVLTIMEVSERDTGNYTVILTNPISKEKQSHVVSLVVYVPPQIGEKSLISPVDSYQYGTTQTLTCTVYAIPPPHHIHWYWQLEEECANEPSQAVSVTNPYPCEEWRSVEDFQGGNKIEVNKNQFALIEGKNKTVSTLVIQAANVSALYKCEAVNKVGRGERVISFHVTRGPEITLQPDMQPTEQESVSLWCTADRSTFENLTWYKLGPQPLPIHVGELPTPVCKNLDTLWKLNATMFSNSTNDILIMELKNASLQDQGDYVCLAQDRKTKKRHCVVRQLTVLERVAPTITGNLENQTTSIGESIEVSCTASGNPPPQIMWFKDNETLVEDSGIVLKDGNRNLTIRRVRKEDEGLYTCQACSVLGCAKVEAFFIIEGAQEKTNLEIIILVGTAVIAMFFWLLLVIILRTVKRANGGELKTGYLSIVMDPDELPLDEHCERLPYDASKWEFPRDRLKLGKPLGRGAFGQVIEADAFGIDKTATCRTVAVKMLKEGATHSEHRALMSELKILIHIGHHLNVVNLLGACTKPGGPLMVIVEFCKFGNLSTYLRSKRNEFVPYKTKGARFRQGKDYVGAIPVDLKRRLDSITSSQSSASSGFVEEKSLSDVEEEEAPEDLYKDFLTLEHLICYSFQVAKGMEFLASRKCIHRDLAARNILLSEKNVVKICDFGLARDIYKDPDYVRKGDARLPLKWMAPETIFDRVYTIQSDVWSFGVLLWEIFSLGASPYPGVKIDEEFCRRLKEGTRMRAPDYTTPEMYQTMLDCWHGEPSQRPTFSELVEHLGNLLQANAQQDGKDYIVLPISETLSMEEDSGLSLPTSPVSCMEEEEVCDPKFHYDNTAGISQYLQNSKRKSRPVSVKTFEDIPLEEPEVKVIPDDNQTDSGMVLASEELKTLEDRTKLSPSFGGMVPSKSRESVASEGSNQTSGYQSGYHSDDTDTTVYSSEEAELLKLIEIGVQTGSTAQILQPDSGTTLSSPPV

[3] = molecular target: Proto-oncogene tyrosine-protein kinase Src (Homo sapiens) (UniProt P12931); assay: Inhibition of SRC at 50 uM after 1 hr
Sequence of Proto-oncogene tyrosine-protein kinase Src (Homo sapiens) (P12931 2-536 limits assumed): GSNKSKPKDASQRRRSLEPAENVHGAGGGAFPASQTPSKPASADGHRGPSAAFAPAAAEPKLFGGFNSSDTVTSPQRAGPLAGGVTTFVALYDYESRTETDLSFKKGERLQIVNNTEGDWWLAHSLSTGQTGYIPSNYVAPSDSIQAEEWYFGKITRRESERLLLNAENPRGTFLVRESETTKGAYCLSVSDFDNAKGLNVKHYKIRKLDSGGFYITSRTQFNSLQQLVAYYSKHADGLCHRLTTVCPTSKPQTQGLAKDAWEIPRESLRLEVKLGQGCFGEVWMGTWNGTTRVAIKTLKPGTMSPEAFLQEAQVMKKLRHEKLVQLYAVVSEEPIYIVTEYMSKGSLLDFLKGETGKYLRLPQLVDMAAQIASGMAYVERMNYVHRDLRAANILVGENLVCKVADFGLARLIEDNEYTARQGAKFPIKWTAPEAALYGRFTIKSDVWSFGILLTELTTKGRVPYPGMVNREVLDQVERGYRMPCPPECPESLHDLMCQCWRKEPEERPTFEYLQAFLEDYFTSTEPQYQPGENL

[4] = molecular target: Proto-oncogene tyrosine-protein kinase Src (Homo sapiens) (UniProt P12931); assay: Inhibition of SRC in human K562 cells assessed as reduction in activated ERK1/2 levels at 10 uM by Western blot analysis; type: cell-based; settings: TDE = time-dependent effect
[5] = molecular target: DNA topoisomerase 2-alpha (Homo sapiens) (UniProt P11388); assay: Inhibition of human topoisomerase 2 at 1 to 50 uM for 40 mins using ethidium bromide by decatenation assay
Sequence of DNA topoisomerase 2-alpha (Homo sapiens) (P11388 whole entry): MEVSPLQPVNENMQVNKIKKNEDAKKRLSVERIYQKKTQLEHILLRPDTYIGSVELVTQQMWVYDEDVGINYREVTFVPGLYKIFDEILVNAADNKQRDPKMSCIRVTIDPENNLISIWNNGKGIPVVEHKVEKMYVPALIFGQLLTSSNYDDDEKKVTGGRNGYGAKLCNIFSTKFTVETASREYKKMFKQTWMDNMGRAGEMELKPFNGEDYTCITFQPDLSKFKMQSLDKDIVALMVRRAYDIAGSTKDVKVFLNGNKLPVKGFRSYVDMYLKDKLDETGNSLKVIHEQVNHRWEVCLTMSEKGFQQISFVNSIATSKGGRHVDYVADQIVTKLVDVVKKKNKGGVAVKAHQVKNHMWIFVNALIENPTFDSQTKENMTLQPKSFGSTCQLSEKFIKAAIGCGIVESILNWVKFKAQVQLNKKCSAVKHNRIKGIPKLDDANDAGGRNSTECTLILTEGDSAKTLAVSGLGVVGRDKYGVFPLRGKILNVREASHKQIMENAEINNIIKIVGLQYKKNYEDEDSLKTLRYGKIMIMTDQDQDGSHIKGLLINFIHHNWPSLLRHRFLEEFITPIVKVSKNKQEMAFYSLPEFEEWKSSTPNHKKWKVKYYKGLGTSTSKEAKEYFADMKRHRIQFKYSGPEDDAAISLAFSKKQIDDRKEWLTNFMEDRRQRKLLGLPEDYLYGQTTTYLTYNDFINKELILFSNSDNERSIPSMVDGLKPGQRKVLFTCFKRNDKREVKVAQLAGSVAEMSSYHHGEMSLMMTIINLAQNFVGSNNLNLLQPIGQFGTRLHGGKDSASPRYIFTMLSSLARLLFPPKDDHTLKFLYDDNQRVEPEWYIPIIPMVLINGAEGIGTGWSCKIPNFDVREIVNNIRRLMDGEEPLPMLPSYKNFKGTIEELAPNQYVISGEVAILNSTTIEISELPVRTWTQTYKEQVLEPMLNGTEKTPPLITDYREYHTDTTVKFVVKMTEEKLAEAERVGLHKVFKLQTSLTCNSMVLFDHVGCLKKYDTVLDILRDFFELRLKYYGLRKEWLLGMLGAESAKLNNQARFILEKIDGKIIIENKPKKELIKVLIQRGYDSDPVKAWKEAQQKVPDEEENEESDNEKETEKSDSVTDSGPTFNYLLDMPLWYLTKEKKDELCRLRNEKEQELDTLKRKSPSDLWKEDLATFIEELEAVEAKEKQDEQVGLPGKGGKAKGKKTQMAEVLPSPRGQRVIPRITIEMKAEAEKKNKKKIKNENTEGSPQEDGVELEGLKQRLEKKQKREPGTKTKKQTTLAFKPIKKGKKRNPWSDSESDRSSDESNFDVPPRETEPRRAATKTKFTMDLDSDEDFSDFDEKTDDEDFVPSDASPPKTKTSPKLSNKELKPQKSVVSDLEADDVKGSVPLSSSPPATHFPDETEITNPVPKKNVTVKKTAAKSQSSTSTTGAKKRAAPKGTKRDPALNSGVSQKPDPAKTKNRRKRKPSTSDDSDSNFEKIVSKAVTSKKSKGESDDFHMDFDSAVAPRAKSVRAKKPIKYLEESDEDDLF

[6] = molecular target: Vascular endothelial growth factor receptor 2 (Homo sapiens) (UniProt P35968); assay: Inhibition of VEGFR2 in human K562 cells assessed as reduction in activated ERK1/2 levels at 10 uM by Western blot analysis; type: cell-based
Malme-3M = assay: cells; settings: Homo sapiens
Description: Growth inhibition of MALME-3M cells

SK-MEL-28 = assay: Growth inhibition of SK-MEL-28 cells; settings: Homo sapiens
[7] = Growth inhibition of A375M cells; settings: Homo sapiens
K562 [8] = assay: Ratio of imatinib IC50 to compound IC50 for human K562 cells after 48 hrs by MTT assay; type: functional

SMILES	IC50 (K562 [1])	IC50 (HepG2)	IC50 (MCF7)	also measured
COc1cccc(Nc2c3ccc(Cl)cc3nc3ccc(OC)cc23)c1	2.7 µM	14.9 µM	> 50 µM	–
COc1ccc2nc3cc(Cl)ccc3c(NCCN)c2c1	7 µM	6 µM	9.3 µM	–
COc1cc2c(c(OC)c1OC)-c1ccc(OC)c(=O)cc1[C@@H](NC(C)=O)CC2 [COLCHICINE]	–	1.9 µM	1.9 µM	–
COc1ccc2nc3cc(Cl)ccc3c(Nc3cccnc3N)c2c1	11.7 µM	10.6 µM	23.2 µM	–
Cc1ccc(NC(=O)c2ccc(CN3CCN(C)CC3)cc2)cc1Nc1nccc(-c2cccnc2)n1 [IMATINIB]	5.4 µM	–	–	–
COc1ccc2nc3cc(Cl)ccc3c(Nc3ccc(OC(F)(F)F)cc3)c2c1	9.7 µM	10.2 µM	18.9 µM	–
COc1ccc2nc3cc(Cl)ccc3c(Nc3cccc(N)n3)c2c1	12 µM	32.7 µM	17.6 µM	inhibition [2]: 3.77%; inhibition [3]: 6.12%
COc1ccc2nc3cc(Cl)ccc3c(Nc3ccc(C(F)(F)F)cc3)c2c1	10.8 µM	> 50 µM	> 50 µM	–
COc1ccc2nc3cc(Cl)ccc3c(Nc3ccncc3)c2c1	7.3 µM	4.1 µM	> 50 µM	–
CCOc1ccccc1Nc1c2ccc(Cl)cc2nc2ccc(OC)cc12	9 µM	27.9 µM	> 50 µM	–
COc1ccc2nc3cc(Cl)ccc3c(Nc3ccccc3Cl)c2c1	23.8 µM	30.2 µM	> 50 µM	–
COc1ccc2nc3cc(Cl)ccc3c(Nc3cccc(O)c3)c2c1	5.5 µM	9.6 µM	13.2 µM	–
COc1ccc2nc3cc(Cl)ccc3c(Nc3ccc(C)cc3)c2c1	5.5 µM	8.8 µM	19.9 µM	–
COc1ccc2nc3cc(Cl)ccc3c(Nc3cc(OC)c(OC)c(OC)c3)c2c1	31 µM	16.8 µM	> 50 µM	–
COc1ccc2nc3cc(Cl)ccc3c(Nc3ccccc3F)c2c1	13.5 µM	46.1 µM	> 50 µM	–
COc1ccc2nc3cc(Cl)ccc3c(NCc3ccccc3OC)c2c1	5 µM	4.2 µM	23.8 µM	inhibition [4]: tde; inhibition [5]: inactive; inhibition [2]: 44%; inhibition [6]: Active; inhibition [3]: 8.02%
CN[C@@H]1C[C@H]2O[C@@](C)([C@@H]1OC)n1c3ccccc3c3c4c(c5c6ccccc6n2c5c31)C(=O)NC4	–	–	–	inhibition [3]: 99.4%
CCOc1ccc(Nc2c3ccc(Cl)cc3nc3ccc(OC)cc23)cc1	3.2 µM	7.4 µM	41.6 µM	–
COc1ccc2nc3cc(Cl)ccc3c(Nc3ccccc3O)c2c1	4.9 µM	11.4 µM	> 50 µM	–
Cn1c(Nc2ccc(C(F)(F)F)cc2)nc2cc(Oc3ccnc(-c4ncc(C(F)(F)F)[nH]4)c3)ccc21 [RAF-265]	–	–	–	IC50 (Malme-3M): 0.14 µM; IC50 (SK-MEL-28): 0.14 µM; IC50 [7]: 0.14 µM
COc1ccc2nc3cc(Cl)ccc3c(Nc3cccc(NC(C)=O)c3)c2c1	21.3 µM	36.8 µM	> 50 µM	–
COc1ccc2nc3cc(Cl)ccc3c(Nc3ccccc3OC)c2c1	5.4 µM	> 50 µM	> 50 µM	–
COc1ccc2nc3cc(Cl)ccc3c(Nc3ccc(N)cc3)c2c1	7.7 µM	11 µM	23.2 µM	–
COc1ccc(Nc2c3ccc(Cl)cc3nc3ccc(OC)cc23)cc1	2.2 µM	6.3 µM	> 50 µM	Ratio IC50 (K562 [8]): 2.5
COc1ccc2nc3cc(Cl)ccc3c(Nc3ccc(C(=O)O)c(O)c3)c2c1	18.7 µM	> 50 µM	> 50 µM	inhibition [5]: inactive; inhibition [2]: 5.4%; inhibition [3]: 2.8%
